Experimental findings from ChEMBL document CHEMBL4184317, “Discovery of Tetrahydroquinoxalines as Bromodomain and Extra-Terminal Domain (BET) Inhibitors with Selectivity for the Second Bromodomain” (J Med Chem, 2018) are described below.

Each structure is given as a SMILES string.

The target in series [1] is Bromodomain-containing protein 4 (Homo sapiens, UniProt O60885, Y390A).
Series [2] has as its target Bromodomain-containing protein 4 (Homo sapiens, UniProt O60885, Y97A).
Series [3] deals with PBMC. Briefly: cells. The conditions noted are these: Homo sapiens, read-out: pIC50 (converted).
Description: Antiinflammatory activity in human PBMC assessed as inhibition of LPS-induced MCP1 release preincubated for 30 mins followed by LPS challenge measured after 24 hrs by immunoassay
Series [4] is described as follows: physchem. The conditions noted are these: buffer.
Description: Chromatographic hydrophobicity index, log D of the compound at pH 7.4 by HPLC method

In general, chromatographic logD refers to lipophilicity estimated from chromatographic retention. For `CC(=O)N1c2ccccc2N(Cc2ccccc2N(C)C)CC1C1CC1` (stereo unspecified), the figures for the IC50 in series [1], in series [2] and in series [3] were 20000 nM, 501 nM and 1580 nM, respectively. In series [4] (pH 7.4, logD), the chromatographic logD came to 7.5.

In turn, `CC(=O)N1c2ccc(-c3ccc(C(=O)O)cc3)cc2[C@H](Nc2ccc(Cl)cc2)C[C@@H]1C` gave a chromatographic logD in series [4] (pH 7.4, logD) of 3.9.

Turning to `CC(=O)N1c2ccccc2N(Cc2ccccc2C(=O)O)CC1C` (stereo unspecified), the IC50 in series [1] is 39800 nM; in series [2], 1580 nM. The chromatographic logD in series [4] (pH 7.4, logD) was 1.5.

Consider `CCC1CN(Cc2ccccc2)c2cc(-c3cccc(C(N)=O)c3)ccc2N1C(C)=O` (stereo unspecified), for which the values for the IC50 in series [1] and in series [2] were 501 nM and 63.1 nM, respectively. Further, the chromatographic logD in series [4] (pH 7.4, logD) came to 4.7.

As for `CC(=O)N1c2ccccc2N(Cc2ccccc2O)CC1C1CC1` (stereo unspecified), the IC50 in series [1] was 20000 nM; in series [2] it was 501 nM; in series [3] it was 1260 nM. The same compound had a chromatographic logD in series [4] (pH 7.4, logD) of 5.2.

In the case of `CCC1CN(Cc2ccccc2)c2cc(-c3cncnc3)ccc2N1C(C)=O` (stereo unspecified), the IC50 in series [1] was 3160 nM; in series [2] it was 158 nM. Also, the chromatographic logD in series [4] (pH 7.4, logD) was found to be 4.9.

`CCC1CN(Cc2ccccc2)c2cc(-c3cnoc3)ccc2N1C(C)=O` (stereo unspecified): the IC50 in series [1] is 1580 nM; in series [2], 126 nM. This compound registered a chromatographic logD in series [4] (pH 7.4, logD) of 5.9.

As to `CCC1CN(Cc2ccccc2)c2cc(-c3ccc(C(N)=O)nc3)ccc2N1C(C)=O` (stereo unspecified), the IC50 is 631 nM in series [1] and 63.1 nM in series [2]. For the same compound, in series [4] (pH 7.4, logD), the chromatographic logD is 4.5.

As to `CC(=O)N1c2ccccc2N(Cc2ccccc2CO)CC1C1CC1` (single isomer, unassigned; enantiomer 2), the IC50 in series [1] and in series [2] was above 50100 nM throughout.

Turning to `CCC1CN(Cc2ccccc2)c2cc(-c3ccc(=O)[nH]c3)ccc2N1C(C)=O` (stereo unspecified), the IC50 is 794 nM in series [1] and 79.4 nM in series [2]. The compound also registered a chromatographic logD in series [4] (pH 7.4, logD) of 3.5.

Turning to `CCC1CN(Cc2ccccc2)c2cc(-c3cnc(C(N)=O)nc3)ccc2N1C(C)=O` (stereo unspecified), the IC50 in series [1] is 2000 nM; in series [2], 100 nM. In series [4] (pH 7.4, logD), this compound gave a chromatographic logD of 3.6.

With `CCC1CN(Cc2ccccc2)c2cc(-c3ccncc3OC)ccc2N1C(C)=O` (stereo unspecified), the IC50 in series [1] is 5010 nM; in series [2], 501 nM. The compound further had a chromatographic logD in series [4] (pH 7.4, logD) of 5.4.

In the case of `CCC1CN(Cc2ccccc2)c2cc(-c3ccc(C(N)=O)cc3)ccc2N1C(C)=O` (stereo unspecified), the IC50 in series [1] was 398 nM; in series [2], 50.1 nM. The compound further showed a chromatographic logD in series [4] (pH 7.4, logD) of 4.4.

On to `CC(=O)N1CCN(Cc2ccccc2)c2ccccc21`, for which the IC50 in series [1] was 10000 nM; in series [2], 2510 nM. Moreover, in series [4] (pH 7.4, logD), the chromatographic logD was found to be 5.6.

On to `CC(=O)N1c2ccccc2N(Cc2cccc(CO)c2)CC1C1CC1` (stereo unspecified), for which the IC50 in series [1] is 25100 nM; in series [2] it was 794 nM; in series [3], 631 nM. In series [4] (pH 7.4, logD), this compound came in with a chromatographic logD of 4.7.

Turning to `CC(=O)N1CCN(Cc2cccc(C)c2)c2ccccc21`, the results for the IC50 in series [1], in series [2] and in series [3] were 15800 nM, 501 nM and 3160 nM, respectively. This compound also registered a chromatographic logD in series [4] (pH 7.4, logD) of 5.9.

Regarding `CC(=O)N1c2ccccc2N(Cc2cccc(O)c2)CC1C1CC1` (stereo unspecified), the IC50 in series [1] was 15800 nM; in series [2], 631 nM. The chromatographic logD in series [4] (pH 7.4, logD) stood at 4.9.

With `CCC1CN(Cc2ccccc2)c2cc(C3=CCOCC3)ccc2N1C(C)=O` (stereo unspecified), the IC50 is 1580 nM in series [1] and 158 nM in series [2]. Besides, in series [4] (pH 7.4, logD), the chromatographic logD was found to be 6.5.

In the case of `CC(=O)N1c2ccccc2N(Cc2cccc(C)c2)CC1C1CC1` (stereo unspecified), the figures for the IC50 in series [1] and in series [2] were 25100 nM and 794 nM, respectively. For the same compound, the chromatographic logD in series [4] (pH 7.4, logD) turned out to be 7.2.

As to `CCC1CN(Cc2ccccc2)c2cc(C3=CCNCC3)ccc2N1C(C)=O` (stereo unspecified), the results for the IC50 in series [1] and in series [2] were 3160 nM and 158 nM, respectively. In series [4] (pH 7.4), the chromatographic logD was determined as 2.8.

Take `CCOC(=O)c1ccccc1CN1CC(C2CC2)N(C(C)=O)c2ccccc21` (stereo unspecified): the results for the IC50 in series [1] and in series [2] were 12600 nM and 1000 nM, respectively. The chromatographic logD in series [4] (pH 7.4, logD) was found to be 7.2.

For the compound `CC(=O)N1c2ccccc2N(Cc2ccccc2)CC1C` (stereo unspecified), the values for the IC50 in series [1], in series [2] and in series [3] were 15800 nM, 501 nM and 1260 nM, respectively. The chromatographic logD in series [4] (pH 7.4, logD) was found to be 5.9.

For `CC(=O)N1CC(C)N(Cc2ccccc2)c2ccccc21` (stereo unspecified), the IC50 in series [1] is 31600 nM; in series [2], 1260 nM.

Regarding `CC(=O)N1c2ccccc2N(Cc2ccccc2CO)CC1C1CC1` (racemic), the IC50 in series [1] is 31600 nM; in series [2], 501 nM. Also, the chromatographic logD in series [4] (pH 7.4, logD) stood at 4.9.

For `CCC1CN(Cc2ccccc2)c2cc(-c3cccnc3)ccc2N1C(C)=O` (stereo unspecified), the IC50 was 1580 nM in series [1] and 100 nM in series [2]. Moreover, the chromatographic logD in series [4] (pH 7.4, logD) was 5.6.

With `CC(=O)N1c2ccccc2N(Cc2ccccc2C#N)CC1C1CC1` (stereo unspecified), the IC50 in series [1] was 25100 nM; in series [2] it was 2510 nM. The chromatographic logD in series [4] (pH 7.4, logD) came out at 6.

For `CC(=O)N1c2ccccc2N(Cc2cc(C)ccc2C(=O)O)CC1C1CC1` (stereo unspecified), the IC50 in series [1] was above 50100 nM; in series [2], 2510 nM. Moreover, the chromatographic logD in series [4] (pH 7.4, logD) was found to be 2.4.

Turning to `CCC1CN(Cc2cccc(C)c2)c2ccccc2N1C(C)=O` (stereo unspecified), the results for the IC50 in series [1] and in series [2] were 12600 nM and 794 nM, respectively. For the same compound, in series [4] (pH 7.4, logD), the chromatographic logD was determined as 7.1.

With `CC(=O)N1c2ccccc2N(Cc2ccccc2CN)CC1C1CC1` (stereo unspecified), the IC50 in series [1] is 20000 nM; in series [2] it was 631 nM. This compound showed a chromatographic logD in series [4] (pH 7.4, logD) of 2.7.

For `CC(=O)N1CCN(Cc2ccccc2C(=O)O)c2ccccc21`, the results for the IC50 in series [1] and in series [2] were above 50100 nM and 5010 nM, respectively. This compound also registered a chromatographic logD in series [4] (pH 7.4, logD) of 1.2.

With `CCC1CN(Cc2ccccc2)c2ccccc2N1C(C)=O` (stereo unspecified), the IC50 was 10000 nM in series [1] and 631 nM in series [2]. Further, the chromatographic logD in series [4] (pH 7.4, logD) amounted to 6.5.

Turning to `CCC1CN(Cc2ccccc2)c2cc(-c3cnc(C)cn3)ccc2N1C(C)=O` (stereo unspecified), the IC50 was 2000 nM in series [1] and 126 nM in series [2]. The chromatographic logD in series [4] (pH 7.4, logD) turned out to be 6.1.

For `CC(=O)N1c2ccccc2N(Cc2ccccc2C(N)=O)CC1C1CC1` (stereo unspecified), the IC50 in series [1] was above 50100 nM; in series [2], 1260 nM. In series [4] (pH 7.4, logD), this compound displayed a chromatographic logD of 3.9.

As to `CC(=O)N1c2ccccc2N(Cc2ccccc2OCCO)CC1C1CC1` (stereo unspecified), the figures for the IC50 in series [1] and in series [2] were 25100 nM and 316 nM, respectively. Further, in series [4] (pH 7.4, logD), the chromatographic logD turned out to be 4.9.

In turn, `COc1cc(OC)c2c(=O)[nH]c(-c3cc(C)c(OCCO)c(C)c3)nc2c1` [APABETALONE] returned a chromatographic logD in series [4] (pH 7.4, logD) of 2.9.

As for `CCC1CN(Cc2ccccc2)c2cc(Br)ccc2N1C(C)=O` (stereo unspecified), the IC50 in series [1] was 2510 nM; in series [2] it was 316 nM. The compound further showed a chromatographic logD in series [4] (pH 7.4, logD) of 7.4.

`CCC1CN(Cc2ccccc2)c2cc(-c3cnc(C#N)nc3)ccc2N1C(C)=O` (stereo unspecified): the IC50 in series [1] is 251 nM; in series [2], 100 nM. In addition, the chromatographic logD in series [4] (pH 7.4, logD) amounted to 6.3.

Turning to `CC(=O)N1c2ccccc2N(Cc2cccc(C)c2)CC1C` (stereo unspecified), the results for the IC50 in series [1] and in series [2] were 20000 nM and 1000 nM, respectively. For the same compound, in series [4] (pH 7.4, logD), the chromatographic logD was determined as 6.5.

`CCC1CN(Cc2ccccc2)c2cc(-c3cn[nH]c3)ccc2N1C(C)=O` (stereo unspecified): the IC50 in series [1] is 398 nM; in series [2] it was 50.1 nM. This compound also displayed a chromatographic logD in series [4] (pH 7.4, logD) of 4.2.
